Measurements taken from patent publication US6150359A, “Naphthyridinones for inhibiting protein tyrosine kinase and cell cycle kinase mediated cellular proliferation” (Warner-Lambert Company, priority 2000, dated 2000).

Assays:
cdk2 = conditions: cited from earlier work
human tumor cell lines = conditions: approximately 60 NCI human tumor cell lines; cited from earlier work
[1] = target: T1, PDGFr (mouse PDGF-β receptor tyrosine kinase) (Mus musculus, UniProt P05622); test: PDGFr tyrosine kinase assay, 32P incorporation into glutamate-tyrosine copolymer; type: biochemical; conditions: 50 μM ATP
T1 construct: PCR primers are designed to amplify a fragment of DNA that codes for the intracellular tyrosine kinase domain; made in house; host or cells: Sf9 insect cells (baculovirus), cell lysate
T1 sequence (P05622 599-961 limits assumed): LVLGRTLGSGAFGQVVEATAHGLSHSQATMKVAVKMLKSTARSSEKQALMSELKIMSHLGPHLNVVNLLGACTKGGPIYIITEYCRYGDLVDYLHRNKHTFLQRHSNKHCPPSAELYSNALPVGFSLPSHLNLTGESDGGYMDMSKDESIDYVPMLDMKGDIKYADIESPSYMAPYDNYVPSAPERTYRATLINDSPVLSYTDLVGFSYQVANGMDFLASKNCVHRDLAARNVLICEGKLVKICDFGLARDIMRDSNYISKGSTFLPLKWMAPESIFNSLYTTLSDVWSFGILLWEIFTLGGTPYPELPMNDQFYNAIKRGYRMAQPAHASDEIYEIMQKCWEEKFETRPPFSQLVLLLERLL
Method: (§1) Platelet Derived Growth Factor Receptor (PDGFr) and Fibroblast Growth Factor Receptor (FGFr). Full length cDNAs for the mouse PDGF-β and human FGF-1 (flg) receptor tyrosine kinases were obtained from J. Escobedo and are prepared as described in J. Biol. Chem., 1991;262:1482-1487. PCR primers are designed to amplify a fragment of DNA that codes for the intracellular tyrosine kinase domain. The fragment is melded into a baculovirus vector, cotransfected with AcMNPV DNA, and the recombinant virus isolated. SF9 insect cells are infected with the virus to overexpress the protein, and the cell lysate is used for the assay.
(§2) PDGFr and FGFr. […] Briefly, to each well is added 82.5 μL of incubation buffer containing 25 mM Hepes (pH 7.0), 150 mM NaCl, 0.1% Triton X-100, 0.2 mM PMSF, 0.2 mM sodium vanadate, 10 mM manganese chloride, and 750 μg/mL of poly (4:1) glutamate-tyrosine followed by 2.5 μL of inhibitor and 5 μL of enzyme lysate (7.5 μg/μL FGFR-TK or 6.0 μg/μL PDGFR-TK) to initiate the reaction. Following a 10 minute incubation at 25° C., 10 μL of [γ^32 P]ATP (0.4 μCi plus 50 μM ATP) is added to each well, and samples are incubated for an additional 10 minutes at 25° C. The reaction is terminated by the addition of 100 μL of 30% trichloroacetic acid (TCA) containing 20 mM sodium pyrophosphate and precipitation of material onto glass fiber filter mats (Wallac). […] Nonspecific activity is defined as radioactivity retained on the filters following incubation of samples with buffer alone; (no enzyme). Specific enzymatic activity is defined as total activity (enzyme plus buffer) minus nonspecific activity.

c-Src = target: T2, c-Src (Homo sapiens, UniProt P12931); test: c-Src kinase assay, 32P incorporation into polyglutamate-tyrosine; type: biochemical; conditions: 5 μM ATP
T2 construct: made in house; host or cells: baculovirus infected insect cells
T2 sequence (P12931 whole entry, species assumed): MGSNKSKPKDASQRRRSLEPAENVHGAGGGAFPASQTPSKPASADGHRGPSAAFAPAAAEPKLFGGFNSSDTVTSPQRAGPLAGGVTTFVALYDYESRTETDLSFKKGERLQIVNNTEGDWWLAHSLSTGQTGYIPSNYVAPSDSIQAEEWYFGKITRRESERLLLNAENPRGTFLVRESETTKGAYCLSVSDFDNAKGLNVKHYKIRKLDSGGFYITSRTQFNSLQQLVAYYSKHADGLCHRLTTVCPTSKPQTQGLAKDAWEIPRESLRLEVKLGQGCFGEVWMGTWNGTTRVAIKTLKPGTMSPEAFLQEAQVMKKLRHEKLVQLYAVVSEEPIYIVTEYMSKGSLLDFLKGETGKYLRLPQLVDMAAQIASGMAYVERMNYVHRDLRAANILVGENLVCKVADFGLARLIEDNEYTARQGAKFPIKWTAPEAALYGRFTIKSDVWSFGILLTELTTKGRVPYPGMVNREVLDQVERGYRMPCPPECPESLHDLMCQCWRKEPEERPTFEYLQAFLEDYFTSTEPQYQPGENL
Method: Other Kinases. c-Src kinase is purified from baculovirus infected insect cell lysates using an antipeptide monoclonal antibody directed against the N-terminal 2-17 amino acids as described previously by Fry, et al., Anticancer Drug Design, 1994;9:331-351. Protein kinase C (PKC.) is obtained as a rat brain preparation from Promega.
c-Src. The antibody, covalently linked to 0.65-μm latex beads, is added to a suspension of insect cell lysis buffer comprised of 150 mM NaCl, 50 mM Tris pH 7.5, 1 mM DTT, 1% NP-40, 2 mM EGTA, 1 mM sodium vanadate, 1 mM PMSF, 1 μg/mL each of leupeptin, pepstatin, and aprotinin. Insect cell lysate containing the c-Src protein is incubated with these beads for 3 to 4 hours at 4° C. with rotation. At the end of the lysate incubation, the beads are rinsed three times in lysis buffer, resuspended in lysis buffer containing 10% glycerol, and frozen. These latex beads are thawed, rinsed three times in assay buffer which is comprised of 40 mM tris pH 7.5, 5 mM magnesium chloride, and suspended in the same buffer. In a Millipore 96-well plate with a 0.65 μm polyvinylidine membrane bottom are added the reaction components: 10-μL c-Src beads, 10 μL of 2.5 mg/mL polyglutamate-tyrosine substrate, 5 μM ATP containing 0.2 μCi labeled ^32 P-ATP, 5 μL DMSO containing inhibitors or as a solvent control, and buffer to make the final volume 125 μL. The reaction is started at room temperature by addition of the ATP and quenched 10 minutes later by the addition of 125 μL of 30% TCA, 0.1 M sodium pyrophosphate for 15 minutes on ice. The plate is then filtered and the wells washed with two 250-μL aliquots of 15% TCA, 0.1 M pyrophosphate. The filters are punched, counted in a liquid scintillation counter, and the data examined for inhibitory activity in comparison to a known inhibitor such as erbstatin. The method is described more fully in J. Med. Chem., 1994;37:598-609.

cdk4/cyclinD = cdk4/cyclinD (Homo sapiens, UniProt P11802); test: Cyclin-Dependent Kinase 4 (cdk4/cyclinD) Assay; type: biochemical; conditions: 25 μM ATP, retinoblastoma substrate
Chain of cdk4/cyclinD (P11802 whole entry, species assumed): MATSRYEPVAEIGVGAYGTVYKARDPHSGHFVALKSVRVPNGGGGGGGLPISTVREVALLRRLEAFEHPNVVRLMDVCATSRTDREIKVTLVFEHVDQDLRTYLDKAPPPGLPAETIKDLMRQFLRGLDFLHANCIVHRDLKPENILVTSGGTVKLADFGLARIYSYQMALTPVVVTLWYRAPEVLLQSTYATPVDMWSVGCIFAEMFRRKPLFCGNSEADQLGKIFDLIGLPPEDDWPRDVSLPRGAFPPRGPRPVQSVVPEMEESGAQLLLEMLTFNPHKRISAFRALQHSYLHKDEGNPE
Chain of cdk4/cyclinD (P24385 whole entry partner, species assumed): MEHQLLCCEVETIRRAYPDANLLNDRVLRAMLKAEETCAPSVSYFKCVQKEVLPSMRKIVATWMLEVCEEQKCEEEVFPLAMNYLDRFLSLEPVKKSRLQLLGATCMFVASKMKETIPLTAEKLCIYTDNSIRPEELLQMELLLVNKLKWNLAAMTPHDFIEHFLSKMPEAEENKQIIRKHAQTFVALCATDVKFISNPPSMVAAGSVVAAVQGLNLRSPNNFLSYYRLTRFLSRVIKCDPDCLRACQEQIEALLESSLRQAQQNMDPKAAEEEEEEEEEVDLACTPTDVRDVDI
Method: Cyclin-Dependent Kinase 4 (cdk4/cyclinD) Assay
Enzyme assays for IC50 determinations and kinetic evaluation were performed in 96-well filter plates (Millipore MADVN6550). The total volume was 0.1 mL containing a final concentration of 20 mM TRIS (tris[hydroxymethyl]aminomethane), at pH 7.4, 50 mM NaCl, 1 mM dithiothreitol, 10 mM MgCl2, 25 μM ATP containing 0.25 μCi of [^32 P]ATP, 20 ng of cdk4/cyclinD, 1 μg of retinoblastoma, and appropriate dilutions of a compound of the present invention. All components except the ATP were added to the wells, and the plate was placed on a plate mixer for 2 minutes. The reaction was started by adding [^32 P]ATP and the plate was incubated at 25° C. for 15 minutes. The reaction was terminated by addition of 0.1 mL of 20% trichloroacetic acid (TCA). The plate was kept at 4° C. for at least 1 hour to allow the substrate to precipitate. The wells were then washed 5 times with 0.2 mL of 10% TCA and ^32 P incorporation was determined with a beta plate counter (Wallace Inc., Gaithersburg, Md.).

cdk2/cyclinE = cdk2/cyclinE (Homo sapiens, UniProt P24941); test: Cyclin-Dependent Kinase Assay, cdk2/cyclinE; type: biochemical; conditions: retinoblastoma substrate
Method: (§3) Cyclin-Dependent Kinase Assays (cdk2/cyclinE, cdk2/cyclinA, cdkl/cyclinB)
(§4) All components except the ATP were added to the wells, and the plate was placed on a plate mixer for 2 minutes. The reaction was begun by addition of [^32 P]ATP, and the plate was incubated at 25° C. for 15 minutes. The reaction was terminated by addition of 0.1 mL of 20% TCA. The plate was kept at 4° C. for least 1 hour to allow the substrate to precipitate. The wells were then washed 5 times with 0.2 mL of 10% TCA and ^32 P incorporation determined with a beta plate counter (Wallace Inc., Gaithersburg, Md.).

cdk1/cyclinB = cdk1/cyclinB (Homo sapiens, UniProt P06493); test: Cyclin-Dependent Kinase Assay, cdk1/cyclinB; type: biochemical; conditions: 12 mM ATP, retinoblastoma substrate
Chain of cdk1/cyclinB (P06493 whole entry, species assumed): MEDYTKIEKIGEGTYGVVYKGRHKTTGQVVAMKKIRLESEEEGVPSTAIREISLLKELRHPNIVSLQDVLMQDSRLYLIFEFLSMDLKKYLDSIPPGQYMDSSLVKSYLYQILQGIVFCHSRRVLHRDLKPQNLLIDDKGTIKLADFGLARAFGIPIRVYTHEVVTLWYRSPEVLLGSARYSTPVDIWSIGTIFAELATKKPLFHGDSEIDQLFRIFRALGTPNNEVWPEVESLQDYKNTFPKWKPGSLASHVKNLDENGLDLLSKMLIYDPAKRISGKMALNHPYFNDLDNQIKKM
Chain of cdk1/cyclinB (P14635 whole entry partner, species assumed): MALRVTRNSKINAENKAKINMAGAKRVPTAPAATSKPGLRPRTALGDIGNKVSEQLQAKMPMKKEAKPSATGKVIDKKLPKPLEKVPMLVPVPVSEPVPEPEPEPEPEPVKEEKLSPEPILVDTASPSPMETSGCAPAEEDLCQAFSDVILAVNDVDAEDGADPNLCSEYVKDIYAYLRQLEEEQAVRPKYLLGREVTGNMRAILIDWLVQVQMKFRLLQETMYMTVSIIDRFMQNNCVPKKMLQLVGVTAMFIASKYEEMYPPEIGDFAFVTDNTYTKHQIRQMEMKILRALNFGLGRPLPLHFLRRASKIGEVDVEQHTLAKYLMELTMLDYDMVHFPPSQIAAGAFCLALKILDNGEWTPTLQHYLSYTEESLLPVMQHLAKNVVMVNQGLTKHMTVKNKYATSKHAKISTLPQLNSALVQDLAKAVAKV
Method: as §3, §4

[2] = target: T3, FGFr (human FGF-1 (flg) receptor tyrosine kinase) (Homo sapiens, UniProt P11362); test: FGFr tyrosine kinase assay, 32P incorporation into glutamate-tyrosine copolymer; type: biochemical; conditions: 50 μM ATP; read-out: FGFr IC50
T3 construct: PCR primers are designed to amplify a fragment of DNA that codes for the intracellular tyrosine kinase domain; made in house; host or cells: Sf9 insect cells (baculovirus), cell lysate
T3 sequence (P11362 478-767 limits assumed): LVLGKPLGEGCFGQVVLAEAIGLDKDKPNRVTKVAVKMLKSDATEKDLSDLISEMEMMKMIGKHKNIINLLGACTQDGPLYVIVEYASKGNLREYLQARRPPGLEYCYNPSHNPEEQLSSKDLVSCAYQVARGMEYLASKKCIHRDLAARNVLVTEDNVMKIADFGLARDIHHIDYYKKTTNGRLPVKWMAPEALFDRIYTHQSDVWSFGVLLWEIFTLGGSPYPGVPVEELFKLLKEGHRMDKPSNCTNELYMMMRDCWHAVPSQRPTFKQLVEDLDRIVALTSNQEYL
Method: as §1, §2

cdk2/cyclinA = cdk2/cyclinA (Homo sapiens, UniProt P24941); test: Cyclin-Dependent Kinase Assay, cdk2/cyclinA; type: biochemical; conditions: 12 mM ATP, retinoblastoma substrate
Method: as §3, §4

insulin receptor (INSr) = target: T4, insulin receptor (INSr) (Homo sapiens, UniProt P06213); test: Insulin receptor (INSr) kinase assay; type: biochemical; conditions: 10 mM manganese chloride
T4 construct: An assay using the intracellular kinase domains of insulin receptor (INSr)
T4 sequence (P06213 1023-1298 limits assumed, species assumed): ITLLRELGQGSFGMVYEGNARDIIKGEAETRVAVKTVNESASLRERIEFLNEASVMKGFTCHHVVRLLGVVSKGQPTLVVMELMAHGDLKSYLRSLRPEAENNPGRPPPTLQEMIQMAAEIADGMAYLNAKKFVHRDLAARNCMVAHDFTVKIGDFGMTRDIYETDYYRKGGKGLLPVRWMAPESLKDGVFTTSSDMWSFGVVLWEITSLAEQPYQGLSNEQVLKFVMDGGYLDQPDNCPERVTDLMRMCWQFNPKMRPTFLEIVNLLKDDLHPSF
Method: EGFr. Enzyme assays for IC50 determinations are performed in 96-well filter plates (Millipore MADVN6550). The total volume is 0.1 mL containing 20 mM Hepes, pH 7.4, 50 μM sodium vanadate, 40 mM magnesium chloride, 10 μM ATP containing 0.5 μCi of [^32 P]ATP, 20 μg of polyglutamic acid/tyrosine (Sigma Chemical Co., St. Louis, Mo.), 10 ng of EGF receptor tyrosine kinase and appropriate dilutions of inhibitor. All components except the ATP are added to the well, and the plate is incubated with shaking for 10 minutes at 25° C. The reaction is started by adding [^32 P]ATP, and the plate is incubated at 25° C. for 10 minutes. The reaction is terminated by addition of 0.1 mL of 20% trichloroacetic acid (TCA). The plate is kept at 4° C. for at least 15 minutes to allow the substrate to precipitate. The wells are then washed five times with 0.2 mL of 10% TCA, and ^32 P incorporation is determined with a Wallac beta plate counter.
Other Kinases. An assay using the intracellular kinase domains of insulin receptor (INSr) is performed as described for the EGF receptor except that 10 mM manganese chloride is included in the reaction. The PKC assay is performed as previously described by Martiny-Baron, et al., J. Biol. Chem., 1993;268:9194-9197.

cdk4 = conditions: cited from earlier work
[3] = system: breast and lung cancer cells; conditions: several types of breast and lung cancer cells; cited from earlier work

IC50 [1] [µM] | IC50 (c-Src) [µM] | IC50 (cdk4/cyclinD) [µM] | IC50 (cdk2/cyclinE) [µM] | IC50 (cdk1/cyclinB) [µM] | IC50 [2] [µM] | IC50 (cdk2/cyclinA) [µM] | IC50 (insulin receptor (INSr)) [µM] | SMILES | inhibition of cdk2 (cdk2) | inhibition of proliferation of human tumor cell lines (human tumor cell lines) | inhibition of cdk4 (cdk4) | inhibition of breast and lung cancer cells [3]
> 50 | > 50 | 4.2 | 1.1 | 1.9 | 17 | 0.88 | – | CCn1c(=O)ccc2cnc(Nc3ccccc3)cc21 [Example W, 1-ethyl-7-phenylamino-1H-[1,6]naphthyridin-2-one] | – | – | – | –
> 50 | 31 | 1.35 | 3 | 4 | 5.7 | 1.4 | – | CCn1c(=O)ccc2cnc(Nc3ccc(N4CCOCC4)cc3)cc21 [Example Z, 1-ethyl-7-(4-(morpholin-4-yl)phenylamino)-1H -[1,6]naphthyridin-2-one] | – | – | – | –
5 to 50 | > 50 | 2.6 | 1.3 | 1.5 | 10.4 | 0.83 | – | CCn1c(=O)ccc2cnc(Nc3ccc(OC)cc3)cc21 [Example X, 1-ethyl-7-(4-methoxyphenylamino)-1H-[1,6]naphthyridin-2-one] | – | – | – | –
5.6 | 11.4 | 0.35 | 5.8 | 7.4 | 1.4 | 3.5 | – | CCn1c(=O)ccc2cnc(Nc3ccc(N4CCN(C)CC4)cc3)cc21 [Example Y, 1-ethyl-7-[4-(4-methylpiperazin-1-yl)phenylamino]-1H-[1,6]naphthyridin-2-one] | – | – | – | –

More lines, now with the values behind:

SMILES | IC50 [1] [µM] | IC50 (c-Src) [µM] | IC50 (cdk4/cyclinD) [µM] | IC50 (cdk2/cyclinE) [µM] | IC50 (cdk1/cyclinB) [µM] | IC50 [2] [µM] | IC50 (cdk2/cyclinA) [µM] | IC50 (insulin receptor (INSr)) [µM] | inhibition of cdk2 (cdk2) | inhibition of proliferation of human tumor cell lines (human tumor cell lines) | inhibition of cdk4 (cdk4) | inhibition of breast and lung cancer cells [3]
Cn1cnc2c(NCc3ccccc3)nc(NCCO)nc21 [Olomoucine, 2-(hydroxyethylamine)-6-benzylamine-9-methylpurine] | – | – | – | – | – | – | – | – | potent inhibitor of cdk2 and cdk5 | shown to inhibit proliferation of approximately 60 different human tumor cell lines | – | –
CN(C)c1cc2c(cn1)cc(-c1c(Cl)cccc1Cl)c(=O)n2C [Example C, 3-(2,6-dichlorophenyl)-7-dimethylamino-1-methyl-1H -[1,6]naphthyridin-2-one] | – | > 50 | – | – | – | – | – | > 50 | – | – | – | –
CCn1c(=O)ccc2cnc(Nc3ccc(N4CCCCC4)cc3)cc21 [Example AA, 1-ethyl-7-(4-(piperidin-1-yl)phenylamino)-1H -[1,6]naphthyridin-2-one] | > 50 | < 50 | 1.5 | 5 | – | 12.4 | – | – | – | – | – | –
CN1CC[C@H](c2c(O)cc(O)c3c(=O)cc(-c4ccccc4Cl)oc23)[C@H](O)C1 [flavopiridol] | – | – | – | – | – | – | – | – | shown to inhibit cdk2 and cdk4 | – | shown to inhibit cdk2 and cdk4 | potent inhibitor of several types of breast and lung cancer cells
